Reference: patent US11655308B2, “HM-3 fusion protein and application thereof” (TASLY BIOPHARMACEUTICALS CO., LTD., priority 2017, dated 2023)
Read-outs that look alike come from different tables or passages of the source. No end group written: not given here.

Key:
type-II CIA mice = test: Chronic inflammation model of type-II CIA in mice; assay type: in vivo, Balb/c mice; conditions: for ankle width / arthritis scoring / paw circumference / weight of mice / spleen weight: day 60; for ankle width: model G2 4.83±0.20; for arthritis scoring: model G2 11.5±1.7; for paw circumference: model G2 13.62; for weight of mice: model G2 19.5±1.6; for spleen weight: model G2 114.6±14.5
Experimental: Experimental method: Balb/c mice were taken and immunized for the first time. The concentration of type-II bovine collagen was 4 mg/mL. On the day of the experiment (day 0), complete Freund's adjuvant (CFA) and CII solution were mixed evenly in equal volume and emulsified. Excepting for the normal control group of Balb/c mice, mice in each group were sensitized by intracutaneous injection of 50 μL emulsifier at the end of tails. 21 days later, mice were re-immunized with the same dose of emulsifier at the end of tails, and incomplete Freund's adjuvant (IFA) served as an adjuvant at this time. Redness and swelling other arthritic symptoms appeared on toe joints of mice models approximately on the 29th day of the experiment, indicating successful modeling.
Animals in the modeling group on the 30th day of the experiment were randomly divided into:
There were 12 groups in total, and there were 8 pieces of mice in remaining each group excepting for 12 pieces in G1 (normal control group) and G2 (model group).
Measurement of mice weight: mice were weighed by an electronic balance every two days.
Measurement of sole thickness: the thickness of left, right and hind soles for each mouse was measured by a vernier caliper every two days.
Measurement of ankle joint width: the width of left and right ankle joints for each mouse was measured by vernier caliper every two days.
Arthritis index (AI) score: the severity of arthritis for each mouse was evaluated by a paw joint scoring method. 0: no redness and swelling; 1: redness and swelling of little toe joints; 2: redness and swelling of toe joints and toes; 3: redness and swelling of the portion below ankle joints; 4: redness and swelling of toe joints, toes and ankle joints. Scoring was performed once every two days until the end of the experiment.
Blood was collected from the orbit and serum was separated. After mice were killed by cervical dislocation, spleen and thymus were separated and weighed to calculate a spleen coefficient, and then the spleen and thymus were fixed in formalin stationary liquid.

[1] = test system: transgenic blood vessel fluorescent zebrafish; test: In vivo anti-angiogenesis in zebrafish (SIVs area); parameters: area of SIVs: unit not given here; conditions: for inhibiting effect on angiogenesis: 20 ng/tail; for inhibition rate of angiogenesis / area of SIVs: 24 h; for area of SIVs: normal control group 53193
Experimental: Experimental method: transgenic blood vessel fluorescent zebrafish was randomly selected and put into a six-well plate with 30 fish per well, and intravenously injected HM-3 polypeptide, TSL-1 fusion protein, TSL-2 fusion protein, TSL-3 fusion protein and TSL-4 fusion protein respectively in accordance with the dosage of 20 ng/tail and 66 ng/tail; the dosage was […] in Avastin positive control and the injection volume was 20 nL/tail; the zebrafish injected 20 nL/tail of buffer solution served as a solvent control group, and the zebrafish without any treatment served as a normal control group. 10 pieces of zebrafish were randomly selected from each group after processed for 24 h to observe the intestinal vessels of the transgenic zebrafish by a fluorescence microscope, as well as to take and maintain images. Image analysis was performed by Nikon MS-Elements D 3.10 to calculate the area (S) of SIVs (subintestinal vessel, SIV). The calculation formula of angiogenesis inhibition rate was as follows: Angiogenesis inhibition rate (%)=(1−S(Test sample group)/S(Normal control group))×100%
Statistical analysis was performed by variance analysis and Dunnett's T-test and the results were expressed as Mean±SD, where p<0.05 indicates a significant difference.

human macrophage U937 = test: TNF-α production by LPS-induced human macrophage U937 (ELISA); assay type: cell-based; conditions: LPS 1 μg/mL, 48 h, negative group 77.6±19.6
Experimental: Experimental method: Human macrophage U937 was cultured in RPMI-1640 medium containing 10% fetal bovine serum and double antibodies in a constant temperature incubator at 37° C. under the condition of 5% CO2, and the medium was replaced every 2 days. U937 cells in the logarithmic phase were collected, resuspended and adjusted to the concentration of 5×10^5/mL. 100 μL of cells was added to each well of a 96-well plate overnight and induced with LPS (1 μg/mL) in the following day, where n=3. At the same time, the cells were treated with agents, and respectively divided into a positive control group adalimumab, an HM-3 polypeptide group, an mPEG-SC-HM-3 polypeptide group, an HM-3 fusion protein (TSL-1, TSL-2, TSL-3, TSL-4) group, and the specific dosing scheme was shown in Table 5.
48 h after the agents worked, culture medium was collected and centrifuged, and supernatant was taken to measure the content of TNF-α therein by ELISA. Test results were expressed as mean±SD, and statistical T test was performed. *P<0.05 indicates significant difference, **P<0.01 indicates extremely significant difference. Based upon the results, the efficacy of the HM-3 fusion protein against rheumatoid arthritis was screened.

[2] = test system: mice splenic lymphocyte proliferation stimulated by ConA; assay type: cell-based; conditions: for inhibition rate / in vitro efficacy compared with TSL-4 control group: control: TSL-4 (P4 positive control, 12 μmol/L); for optimal (best) inhibition rate of splenic lymphocyte proliferation: ConA 5 μg/mL, 48 h, MTT, best of the tested concentrations
Experimental: Experimental method: mice orbit was by bloodletting to death, and immediately immersed in 75% ethanol for 5-10 min, and then the spleen was removed on a clean bench and placed in PBS. The spleen was placed on a sterile cell strainer (200 mesh) and ground with a syringe nozzle; during grinding process, PBS was added continuously; the slurry was collected and centrifuged (1000 rpm for 5 min), then cells were washed 3 times with Tris-ammonium chloride solution, and washed again with a medium, and then re-suspended in the medium. Finally, trypan blue living cell staining was performed on the cells, and the survival rate was more than 95%. The concentration of viable cells was adjusted to 2×10^6/mL. […] was added to each well of a 96-well plate, meanwhile, ConA (concanavalin to simulate splenocyte proliferation) and drugs were added to each well. Six duplicates were set in each group.
The 96-well plate was incubated for 48 h in a 5% CO2 incubator at 37° C. 5 mg/mL of MTT was added to the 96-well plate, 20 μL for each well, and then it was incubated continuously for 4 h in the incubator. The culture medium in the 96-well plate was discarded and 100 μL DMSO was added to each well and mixed gently. Absorbance was measured by a microplate reader at the wavelength of 570 nm and reference wavelength of 630 nm.
Proliferation inhibition rate (PI) was calculated according to formula:
[formula] wherein, Atest is the absorbance of dosing group, and Acontrol is the absorbance of negative control. Test results were expressed as mean±SD, and statistical T test was performed. *P<0.05 indicates significant difference, **P<0.01 indicates extremely significant difference. Based upon the results, the efficacy of the fusion protein against rheumatoid arthritis was screened.
In the P4 control group, TSL-4 fusion protein served as a control agent.

Rat chondrocyte = test system: Rat chondrocyte
Experimental: Chondrocytes were cultured in a T75 flask for 3-4 days. When the degree of fusion reached 80%, the original culture medium was removed, and sterile PBS was added to clean the cells for 2-3 times, then a proper amount of digestive juice was added, and a fresh culture medium was added after the cells were detached. Cells were centrifuged to remove the cell sap containing the digestive juice, and a proper amount of fresh culture medium was added to be prepared into a cell suspension with appropriate concentration for cell subculture or cell experiments. Cell subculture began from generation P1 and ended till generation P5, and there were cryopreserved cells in each generation. Cells were used for the experiment when subcultured to P2-P5.
According to the inoculum size of 200 μL/well, the cell suspension with the density of 2.5*10^4/mL was inoculated onto a 96-well cell culture plate, and 3 groups were prepared in total, one for control group, and the other two groups were stimulated by hydrogen peroxide. A cell-free medium was prepared as a blank group. There were 4-5 sub-wells prepared in each group. The cell culture plate was put to an incubator for incubation for 24 hours. The culture medium was replaced to different experimental groups in the following day with a dose volume of 100 μl and incubated for 24 or 48 hours respectively.
At the end of incubation according to the experimental plan, 10 μL of 5 mg/ml MTT was added to each experimental group based upon 1/10 of the cell culture volume, so that the cells were incubated with MTT in the incubator for 4 hours. Afterwards, supernatant was carefully discarded, and 200 μL of dimethyl sulfoxide (DMSO) was added for mixing well, then the absorbance was measured on a microplate reader at a test wavelength of 570 nm. Calculating formula of relative cell activity ratio (%): a mean value of the absorbance (per well) in the experimental group/the absorbance in the control group multiplies by 100%. All experimental groups were expressed as mean±standard deviation (X±SD). The difference between each group was analyzed by Prism 7.0, and tested by one-way ANOVA. *P<0.05 means statistical difference, **P<0.01 means significant statistical difference, and […] means extremely significant statistical difference.
The experimental concentration of hydrogen peroxide ranged within 0.01, 0.1, 0.5, 1, 10 mM. In order to determine the H2O2 molding time and dosage, three molding time points at 24 hours, 48 hours and 72 hours were selected, and two detection wells were prepared in total for each dosage of hydrogen peroxide.

[3] = G3 Adalimumab 8 mg/kg SC 1 time/14 d, 1 time
[4] = G4 HM-3 1.6 mg/kg IV 2 times/d, 30 times

Adalimumab [reference compound]
ankle width (type-II CIA mice; [3]): 4.23±0.08 mm | arthritis scoring (type-II CIA mice; [3]): 7.6±0.9 | paw circumference (type-II CIA mice; [3]): 11.42±0.20 mm | weight of mice (type-II CIA mice; [3]): 21.0 ± 1.5 g | spleen weight (type-II CIA mice; [3]): 94.6 ± 6.7 mg

IVRRADRAAVPGGGGRGD [HM-3, Ile-Val-Arg-Arg-Ala-Asp-Arg-Ala-Ala-Val-Pro-Gly-Gly-Gly-Gly-Arg-Gly-Asp]
ankle width (type-II CIA mice; [4]): 4.21±0.15 mm | arthritis scoring (type-II CIA mice; [4]): 7.8±1.4 | paw circumference (type-II CIA mice; [4]): 11.41±0.53 mm | weight of mice (type-II CIA mice; [4]): 20.9 ± 1.5 g | spleen weight (type-II CIA mice; [4]): 94.2 ± 13.3 mg | therapeutic effect compared with group G3 (positive Adalimumab group) (type-II CIA mice; groups G4 (HM-3), G10 (TSL-4 12.5 mg/kg once for 5 days, 3 times)): slightly lower than that of the group G3 | inhibiting effect on angiogenesis [1]: no inhibiting effect | inhibition rate of angiogenesis ([1]; 20 ng/tail iv): 2% | area of SIVs ([1]; 20 ng/tail iv): 52186 | inhibition rate of angiogenesis ([1]; 66 ng/tail iv): 20% | area of SIVs ([1]; 66 ng/tail iv): 42492 | TNF-α content in cell supernatant (human macrophage U937; high-dosage (Table 5: 18 μmol/L)): 58.9 ± 10.6 pg/mL | TNF-α content in cell supernatant (human macrophage U937; low-dosage (Table 5: 9 μmol/L)): 83.9 ± 20.4 pg/mL

HyFc-(GGGGS)3-HM-3 [TSL-16]
inhibition rate / in vitro efficacy compared with TSL-4 control group [2]: Significantly lower

OO [H2O2, hydrogen peroxide]
MTT test value (Rat chondrocyte; 0.01 mM H2O2, 24 h, 0 mM 2.35): 2.51 | MTT test value (Rat chondrocyte; 0.01 mM H2O2, 48 h, 0 mM 2.24): 2.1 | MTT test value (Rat chondrocyte; 0.01 mM H2O2, 72 h, 0 mM 1.94): 1.99 | MTT test value (Rat chondrocyte; 0.1 mM H2O2, 24 h, 0 mM 2.35): 2.29 | MTT test value (Rat chondrocyte; 0.1 mM H2O2, 48 h, 0 mM 2.24): 2.08 | MTT test value (Rat chondrocyte; 0.1 mM H2O2, 72 h, 0 mM 1.94): 1.92 | MTT test value (Rat chondrocyte; 1 mM H2O2, 24 h, 0 mM 2.35): 1.28 | MTT test value (Rat chondrocyte; 1 mM H2O2, 48 h, 0 mM 2.24): 1.47 | MTT test value (Rat chondrocyte; 1 mM H2O2, 72 h, 0 mM 1.94): 0.81 | MTT test value (Rat chondrocyte; 10 mM H2O2, 24 h, 0 mM 2.35): 0.06 | MTT test value (Rat chondrocyte; 10 mM H2O2, 48 h, 0 mM 2.24): 0.56 | MTT test value (Rat chondrocyte; 10 mM H2O2, 72 h, 0 mM 1.94): −0.07

HM-3-HyFc [TSL-14]
inhibition rate / in vitro efficacy compared with TSL-4 control group [2]: Significantly lower

HM-3-(GGGGS)3-mIgG4-Fc [TSL-2]
inhibiting effect on angiogenesis [1]: significant inhibitory effect | inhibition rate of angiogenesis ([1]; 20 ng/tail iv): 19% | area of SIVs ([1]; 20 ng/tail iv): 42828 | inhibition rate of angiogenesis ([1]; 66 ng/tail iv): 39% | area of SIVs ([1]; 66 ng/tail iv): 32374 | optimal (best) inhibition rate of splenic lymphocyte proliferation [2]: 34.1%

B1: HM-3-(GGGGS)3-IgG2-Fc (protein)
chain: IVRRADRAAVPGGGGRGDGGGGSGGGGSGGGGSERKCCVECPPCPAPPVAGPSVFLFPPKPKDTLMISRTPEVTCVVVDVSHEDPEVQFNWYVDGVEVHNAKTKPREEQFNSTFRVVSVLTVVHQDWLNGKEYKCKVSNKGLPAPIEKTISKTKGQPREPQVYTLPPSREEMTKNQVSLTCLVKGFYPSDISVEWESNGQPENNYKTTPPMLDSDGSFFLYSKLTVDKSRWQQGNVFSCSVMHEALHNHYTQKSLSLSPGK
inhibiting effect on angiogenesis [1]: significant inhibitory effect | inhibition rate of angiogenesis ([1]; 20 ng/tail iv): 25% | area of SIVs ([1]; 20 ng/tail iv): 39929 | inhibition rate of angiogenesis ([1]; 66 ng/tail iv): 30% | area of SIVs ([1]; 66 ng/tail iv): 37022 | optimal (best) inhibition rate of splenic lymphocyte proliferation [2]: 39.6%
